Several values for one entry are separate records, joined by “and”; a condition that tells them apart may be missing. Equal entries are not always repeated.
What was measured:
[1] = tested on: Mouse neuroblastoma Neuro2A cells; assay: Promotion activity on the neurite outgrowth (1): proportion of cells with extended neurite; assay type: cell-based; details: for Proportion of cells with neurite (%) mean value ± standard error: 10 nM
Procedure: (§1) Mouse neuroblastoma Neuro2A cells (obtained from DAINIPPON PHARMACEUTICAL CO., LTD.) were suspended with a density of 2.5×10^4 cells/mL in DMEM containing 10% FCS and 2 mM of Gln, and were plated on commercially available 24-well tissue culture plates with a quantity of 400 μL/well. After an overnight culture under the conditions where the temperature was 37° C., and the carbon dioxide content of the air was 5%, the media was exchanged to an identical media containing the test compound, and the culture was further continued for 24 hours. Then microscope photographs were taken with a 20× lens. Using the photographs, by counting the total number of cells in the field of view and the number of cells with extended neurite, the proportion of cells with extended neurite is calculated.

[2] = tested on: Mouse neuroblastoma Neuro2A cells; assay: Promotion activity on the neurite outgrowth (2): length of neurite per cell; assay type: cell-based
Procedure: as §1
The cells used and the performed culture method were identical to those in Reference example (1). After being cultured in a media containing the test compound for 24 hours, microscope photographs were taken with a 20× lens. […] Using image processing software, the area covered by the neurites were calculated, and, since the thickness used to mark the neurite was uniform, the analysis was performed considering that the area was proportional to the length, and allowing to compute the length of neurite per cell.

[3] = tested on: Bovine cerebral capillary endothelial cells; assay: Permeability through the blood brain barrier: incorporation into bovine cerebral capillary endothelial cells; assay type: in vitro ADME; details: test compound 1 μM, 15 minutes, ethanol extraction, HPLC
Procedure: Bovine cerebral capillary endothelial cells were cultured on a 100 mm diameter plate (coated with collagen I) to obtain confluency. The cells were cultured for 15 minutes in an incorporation media (141 mM NaCl, 4 mM KCl, 2 mM CaCl2, 1 mM […], 10 mM HEPES, 10 mM D-glucose) containing the test compound (1 μM), to incorporate the test compound into the cells. Then, the test compound incorporated into the cells was extracted with ethanol extraction, and quantified by HPLC. The rate of incorporation was calculated with the equation below. amount of test compound in the ethanol-extracted fraction/amount of test compound in the incorporation solution×100(%)

[4] = tested on: Wistar male rats, model for Alzheimer's disease by the continuous intracerebroventricular administration of β-amyloid proteins; assay: Step-through passive avoidance test in rats given β-amyloid protein continuously into the cerebral ventricle; assay type: in vivo, rat; details: Examples 44-47, β-amyloid protein alone 300 pmol/day, continuous intracerebroventricular by osmotic pump
Source text: A step-through passive avoidance instrument made of two chambers separated by a guillotine door was used as the experimental apparatus. One chamber is an illuminated chamber made of transparent acrylic boards (floor: 15 cm×25 cm, height: 15 cm), the other chamber is a dark chamber made of black acryl boards (same dimensions). In addition, the floor of the dark chamber was equipped with a grid made of 4 mm diameter stainless steel pieces separated by 15 mm spacing. The grid was connected to an apparatus for delivering electric shocks (shock generator scrambler).
First, the guillotine door was opened for one minute to let a rat freely explore the interior of the apparatus. Then, for acquisition trials, the door was closed and the rat was put into the illuminated chamber. 30 seconds later, the door was opened and immediately after the four legs of the rat were put inside the dark chamber, the door was closed and an electric shock was delivered. The strength of the electric shock was 0.5 mA for 5 seconds. The training was repeated until the rat remained in the illuminated chamber for more than 120 seconds when the rat was placed in the illuminated chamber immediately after the electric shock and the door was opened in a similar way. 24 hours after the acquisition trials, the rat was put into the illuminating chamber for retention trials, 30 seconds after, the guillotine door was opened, and the time taken for the four legs of the rat to enter the dark chamber was measured (step-through latency). The maximum observation time during retention trials was set to 300 seconds.
(§2) 7 week old Wistar male rats (weight 220 to 250 g) were used (N=5 to 10).
(§3) β-amyloid protein (1–42) was dissolved in 35% acetonitrile-0.1% trifluoroacetic acid in water, injected in a mini-osmotic pump, which had been set to deliver 300 pmol/day (volume: 230 μL, flow: 0.5 μL/hour), and connected to a dental syringe needle through a polyethylene tube. Animals in control group were connected to a pump to which β-amyloid protein (40–1) orvehicleonly was injected. […]

[5] = tested on: Wistar male rats, model for Alzheimer's disease by the continuous intracerebroventricular administration of β-amyloid proteins; assay: Y-maze test (spontaneous alternation behavior test) in rats given β-amyloid protein continuously into the cerebral ventricle; assay type: in vivo, rat; details: Examples 48-51, β-amyloid protein alone 300 pmol/day, continuous intracerebroventricular by osmotic pump
Procedure: A Y-shaped maze made by connecting three arms having a length of 35 cm each, a wall height of 25 cm and a floor width of 10 cm at an angle of 120° with respect to each other. The apparatus was settled on the laboratory floor.
A rat was placed at the extremity of one of the arms, was allowed to freely explore the maze for 8 minutes, and a record was taken of the order in which the arms were explored by the rat. By calling (A) the “Total arm entries”, and among them, by calling (B) the “Number of spontaneous alternations” which is the number of cases where 3 different arms were selected in sequence, the “Percentage of spontaneous alternations” was calculated with: (B/(A−2))×100.
as §2
as §3, with “injected. After anesthetizing the rats with pentobarbital (50 mg/Kg, i.p.), an incision was performed in each of their scalps, and following the brainatlas, holes were drilled in the cranium.” for “injected.”

[6] = listed as β-amyloid protein (1-42)
[7] = listed as β-amyloid protein (1–42)

In the case of Cc1cccc(C[C@@H](O)/C=C/[C@@H]2[C@H]3CC(CCCCCN4CCCC4)=C[C@H]3C[C@H]2O)c1 [Test compound C], the “Promotion activity on the neurite outgrowth (value relative to PGE1)” value (“Promotion activity … (value relative to PGE1)” below) ([1]; Example 56, 24 hours, 10 μM) is reported as 1.15.
For CCCCC[C@H](O)/C=C/[C@H]1[C@H](O)CC(=O)[C@@H]1CCCCCCC(=O)O [PGE1], the “Length of neurite per single cell (pixel/cell) mean value ± standard error” value ([2]; Example 53, 24 hours, 1 nM) was 14.2 ± 1.5 pixel/cell, the “Length of neurite per single cell (pixel/cell) mean value ± standard error” value ([2]; Example 55, 24 hours, 100 nM) was 5.7 ± 1.03 pixel/cell and the “Proportion of cells with neurite (%) mean value ± standard error” value ([1]; Example 52, 24 hours) was 26.0 ± 3.0%. The “Proportion of cells with neurite (%) mean value ± standard error” value ([1]; Example 54, 24 hours) was 19.5 ± 1.9%, the “Promotion activity … (value relative to PGE1)” value ([1]; Example 56, 24 hours, 10 μM) was 1.00 and the “Promotion activity … (value relative to PGE1)” value ([1]; Example 57, 24 hours, 10 μM) was 1.00. For the same compound, the “Promotion activity … (value relative to PGE1)” value ([1]; Example 58, 24 hours, 10 μM) was 1.00.
For Cc1cccc(C[C@H](O)/C=C/[C@@H]2[C@H]3CC(CCCCCN(C)C)=C[C@H]3C[C@H]2O)c1 [Test compound D], the “Promotion activity … (value relative to PGE1)” value ([1]; Example 56, 24 hours, 10 μM) was 1.31.
In the case of CCCC[C@](C)(O)C/C=C/[C@@H]1[C@H]2CC(CCCCCN(C)C)=C[C@H]2C[C@H]1O [Test compound E], the “Promotion activity … (value relative to PGE1)” value ([1]; Example 56, 24 hours, 10 μM) is reported as 1.58.
For CCCC[C@](C)(O)C/C=C/[C@@H]1[C@H]2CC(CCCCC(=O)O)=C[C@H]2C[C@H]1O [Test compound B], the “Promotion activity … (value relative to PGE1)” value ([1]; Example 56, 24 hours, 10 μM) was 1.63, the “Promotion activity … (value relative to PGE1)” value ([1]; Example 57, 24 hours, 0.1 μM (PGE1 at 10 μM)) was 1.12 and the “Rate of incorporation into bovine capillary endothelial cells (mean value of two experiments)” value ([3]; Example 61) was “below detection limit”. The “Rate of incorporation into bovine capillary endothelial cells (mean value of two experiments)” value ([3]; Example 62) was “below detection limit”.
In the case of “β-amyloid protein(1-42): β-amyloid protein (1–42) given continuously into the cerebral ventricle by mini-osmotic pump to lower learning and memory in the rat model”, the “Time taken to move into the dark chamber during retention trials mean value ± standard error” value [4] is reported as 140.2 ± 53.8 (n = 5) seconds and 132.8 ± 58.1 (n = 5) seconds, the “Time taken to move into the dark chamber during retention trials mean value ± standard error” value [4, 6] is reported as 191.7 ± 49.0 s and the “Time taken to move into the dark chamber during retention trials mean value ± standard error” value [4, 7] is reported as “a decrease in the ability of learning and memory was observed”. The “Occurrence of spontaneous alternation behavior mean value ± standard error” value [5, 6] was 65.6 ± 3.4% and 66.5 ± 4.7% and 59.1 ± 3.0% and the “Occurrence of spontaneous alternation behavior mean value ± standard error” value [5, 7] was “a decrease in the ability of learning and memory was observed”.
